From patent US5272155A, “(+)-2-methylpiperidine as modulator of cholinergic systems” (Abbott Laboratories, priority 1991, dated 1993)
“Also recorded” adds a separate entry of the source. Where two headings read alike, the source gives them in different places.

Columns and labels:
rat brain receptor sites = settings: cited from earlier work
CD1 mice [1] = settings: known anxiolytic drug, background of the test; cited from earlier work
nicotinic receptor [2] = test: Resting cortical cerebral blood flow (CBF) in rats, iv administration; format: in vivo, rat; settings: for Resting Cortical CBF, % of Resting CONTROL: mean (SEM), (+) N = 5 rats, (-) N = 3 rats; for effect on resting CBF: 0.1-3.0 mg/kg, result in words
Experimental: (§1) Methods for surgical preparations of rats for electrical stimulation of brain and measurement of cortical CBF are detailed by Linville and Arneric (1991).
(§2) Intravenous (iv) administration of (+) 2-methylpiperidine ((+)2-MP) and (-)2-MP (0.1-3.0 mg/kg) were examined for their effect on mean arterial pressure (MAP), resting CBF and increases in cortical CBF elicited by electrically stimulating the BF (.perspectiveto.25 Hz; 100 uA; 10 sec. train).

nicotinic receptor [3] = test: Cortical CBF response elicited by electrical stimulation of the basal forebrain (BF) in rats; format: in vivo, rat; settings: iv; for BF-Elicited CBF Response, % of Resting Cortical CBF: mean (SEM), (+) N = 5 rats, (-) N = 3 rats; for effect on BF-elicited CBF response: 0.1-3.0 mg/kg, result in words
Experimental: as §1, §2

[4] = Mean arterial pressure (MAP) in rats, iv administration; format: in vivo, rat; settings: for Mean Arterial Pressure (MAP): mean (SEM), (+) N = 5 rats, (-) N = 3 rats; for effect on mean arterial pressure / blood pressure: 0.1-3.0 mg/kg, result in words
Experimental: as §1, §2

male CD1 mice = test: Acute lethality in mice within 24 hours; format: in vivo, mouse; settings: for Deaths in 24 hours / tolerability: i.p.; for Deaths in 24 hours: mandelic acid salt, deaths/animals; for tolerability: 30 and 100 mg/kg
Description: Compounds were given as the respective mandelic acid salts.

mouse = test: (-)Nicotine induced mouse lethality after pretreatment; format: in vivo
CD1 mice [5] = test: Mouse elevated-plus maze (conflict test, anxiolytic activity); format: in vivo
Experimental: FIG. 1A is a graph of time mice spend in the open arms of the elevated-plusmaze (a conflict test that probes anxiolytic activity) as a function of the dose of (-)nicotine administered to the mice.
FIG. 1B is a graph of time mice spend in the open arms of the elevated-plusmaze as a function of the administration of (+)2-methylpiperidine (0.1 mg/kg) or (-)nicotine administered separately or in combination.
The mouse elevated-plus maze is a conflict test that probes anxiolytic activity (Lister, Pyschopharmacology, 1987, 92:180). It is based on the fact that exposure of mice to an elevated open arm leads to an avoidance response considerably stronger than that evoked by exposure to an enclosed arm.
The apparatus required to perform this test is made of plexiglass and consists of two open arms (17×8 cm) and two enclosed arms (17×8×15 cm) extending from a central platform (8×8 cm). It is mounted on an opaque plexiglass base rising 39 cm above the floor. Mice are released on one of the open arms and the time spent in the open and enclosed arms is recorded during a 5 min. test period.
CD1 mice (n=8 per group) received systemic (-)nicotine injections (0, 0.03, 0.1 or 0.3 mg/kg, IP) fifteen minutes before they were allowed to explore the plus-maze for a 5 minute test period.

[6] = (-)Nicotine induced mouse lethality after pretreatment; format: in vivo; settings: mouse, in vivo, ip; saline pretreatment; read-out: LD50 [95% C.I.] of (-)nicotine
[7] = Combined effects of (-)nicotine and (+)2-methylpiperidine on rectal temperatures of mice; format: in vivo, mouse; settings: for Rectal temperature: mean ± S.E.M.
Adult male CD1 mice = test: Habituation / locomotor activity in automated activity monitors; format: in vivo, mouse; settings: for locomotor activity, first 10 min after introduction to the novel environment: Saline=3680±169
Experimental: Adult male CD1 mice (n=8/group) were injected with (+)2-methylpiperidine (0, 1.0, 3.0 or 10.0 mg/kg, i.p.) immediately prior or 60 min. prior to placement in automated activity monitors (Omnitech, Columbus, Ohio). These enclosures, measuring 40×40×42 cm, are equipped with a series of photocells and generate measurements of a variety of locomotor activities.

[8] = Hypothermia: rectal temperature of mice; format: in vivo, mouse; settings: i.p.; for Rectal temperature 15 min. later: saline 38.3 ± 0.1, mean ± S.E.M.
Experimental: Adult male CD1 mice (n=5-7/group) were injected with (+)2-methylpiperidine (0, 10 or 100 mg/kg, i.p.) and rectal temperatures were assessed (YSI Model 43 TA) 15 min. later.

[9] = 0.1 mg/kg, dose 0: (+) 100 (10), (-) 100 (13)
[10] = 0.1 mg/kg, dose 0: (+) 153 (11), (-) 130 (8)
[11] = 0.1 mg/kg, dose 0: (+) 76 (3), (-) 90 (6)
[12] = pretreatment 10.0 mg/kg, (-)nicotine 3 mg/kg
[13] = pretreatment 10.0 mg/kg, (-)nicotine 6 mg/kg
[14] = pretreatment 10.0 mg/kg, (-)nicotine 9 mg/kg

CC1CCCCN1 (racemic) [(±)-2-methylpiperidine, reference compound]
enhancement of the binding of nicotine / nicotinic ligands (rat brain receptor sites; Sloan et al. 1985): high degree of specificity in enhancing the binding of nicotine in the rat brain

CN1C(=O)CN=C(c2ccccc2)c2cc(Cl)ccc21 [diazepam]
time spent in open arms, known anxiolytic drugs (CD1 mice [1]): increased in a dose-related way

CC1CCCCN1 (single isomer, unassigned; (-)) [(-)2-methylpiperidine, reference compound]
Resting Cortical CBF, % of Resting CONTROL (nicotinic receptor [2]; [9]): 99 (32) % | Resting Cortical CBF, % of Resting CONTROL (nicotinic receptor [2]; 0.3 mg/kg): 86 (29) % | Resting Cortical CBF, % of Resting CONTROL (nicotinic receptor [2]; 1.0 mg/kg): 74 (27) % | Resting Cortical CBF, % of Resting CONTROL (nicotinic receptor [2]; 3.0 mg/kg): 70 (30) % | effect on resting CBF (nicotinic receptor [2]): no ability to enhance | BF-Elicited CBF Response, % of Resting Cortical CBF (nicotinic receptor [3]; [10]): 113 (30) % | BF-Elicited CBF Response, % of Resting Cortical CBF (nicotinic receptor [3]; 0.3 mg/kg): 101 (28) % | BF-Elicited CBF Response, % of Resting Cortical CBF (nicotinic receptor [3]; 1.0 mg/kg): 88 (26) % | BF-Elicited CBF Response, % of Resting Cortical CBF (nicotinic receptor [3]; 3.0 mg/kg): 81 (30) % | effect on BF-elicited CBF response (nicotinic receptor [3]): no ability to enhance | Mean Arterial Pressure (MAP) [4, 11]: 78 (4) mmHg | Mean Arterial Pressure (MAP) ([4]; 0.3 mg/kg): 83 (4) mmHg | Mean Arterial Pressure (MAP) ([4]; 1.0 mg/kg): 80 (8) mmHg | Mean Arterial Pressure (MAP) ([4]; 3.0 mg/kg): 73 (4) mmHg | Deaths in 24 hours (male CD1 mice; 30 mg/kg): 0/5 | Deaths in 24 hours (male CD1 mice; 100 mg/kg): 0/5 | tolerability (male CD1 mice): well tolerated by male CD1 mice, and did not cause any deaths within 24 hours | DEATHS/24 hours (mouse; [12]): 0/6 | DEATHS/24 hours (mouse; [13]): 0/6 | DEATHS/24 hours (mouse; [14]): 4/6

CN1CCCC1c1cccnc1 (single isomer, unassigned; (-)) [(-)nicotine, reference compound]
time spent in the open arms (anxiolytic effect) (CD1 mice [5]; (-)nicotine 0.1 and 0.3 mg/kg, IP, 15 min before test, p<0.05 vs saline, n=8): significant increase in the time spent by the mice in the open arms | anxiolytic activity of the low (-)nicotine dose given alone (CD1 mice [5]; (-)nicotine dose used in the combination of FIG. 1B): non-effective | death of animals (male CD1 mice; (-)nicotine 9.0 mg/kg): 4 out of 6 | signs of cholinostimulation (male CD1 mice; (-)nicotine 9.0 mg/kg): dyspnea and decreased activity | LD50 [6]: 7.7 mg/kg | DEATHS/24 hours (mouse; (-)nicotine 3 mg/kg, saline pretreatment): 0/6 | DEATHS/24 hours (mouse; (-)nicotine 6 mg/kg, saline pretreatment): 2/8 | DEATHS/24 hours (mouse; (-)nicotine 9 mg/kg, saline pretreatment): 4/6 | effect on temperature ([7]; (-)nicotine 0.3 and 1.0 mg/kg, i.p.): significantly lowered temperature | Rectal temperature ([7]; saline pretreatment, (-)nicotine 0.3 mg/kg, * p<0.05 vs saline (38.3 ± 0.1)): 36.9 ± 0.2 °C | Rectal temperature ([7]; saline pretreatment, (-)nicotine 1.0 mg/kg, * p<0.05 vs saline (38.3 ± 0.1)): 36.5 ± 0.6 °C

CC1CCCCN1 (racemic) [(+)2-methylpiperidine, (+)-2-methylpiperidine]
Resting Cortical CBF, % of Resting CONTROL (nicotinic receptor [2]; [9]): 126 (15) % | Resting Cortical CBF, % of Resting CONTROL (nicotinic receptor [2]; 0.3 mg/kg): 133 (22) % | Resting Cortical CBF, % of Resting CONTROL (nicotinic receptor [2]; 1.0 mg/kg): 146 (28) % | Resting Cortical CBF, % of Resting CONTROL (nicotinic receptor [2]; 3.0 mg/kg): 140 (27) % | effect on resting CBF (nicotinic receptor [2]; listed as (+)2-MP): effective in enhancing resting CBF | effect on resting CBF (nicotinic receptor [2]; listed as (+)-2MP): enhanced | BF-Elicited CBF Response, % of Resting Cortical CBF (nicotinic receptor [3]; [10]): 203 (21) % | BF-Elicited CBF Response, % of Resting Cortical CBF (nicotinic receptor [3]; 0.3 mg/kg): 222 (20) % | BF-Elicited CBF Response, % of Resting Cortical CBF (nicotinic receptor [3]; 1.0 mg/kg): 222 (23) % | BF-Elicited CBF Response, % of Resting Cortical CBF (nicotinic receptor [3]; 3.0 mg/kg): 220 (19) % | effect on BF-elicited CBF response (nicotinic receptor [3]; listed as (+)2-MP): effective in enhancing resting CBF and the BF-elicited CBF response | effect on BF-elicited CBF response (nicotinic receptor [3]; listed as (+)-2MP): enhanced | Mean Arterial Pressure (MAP) [4, 11]: 82 (6) mmHg | Mean Arterial Pressure (MAP) ([4]; 0.3 mg/kg): 87 (5) mmHg | Mean Arterial Pressure (MAP) ([4]; 1.0 mg/kg): 92 (7) mmHg | Mean Arterial Pressure (MAP) ([4]; 3.0 mg/kg): 87 (7) mmHg | effect on mean arterial pressure / blood pressure [4]: no overt on blood pressure | effect on mean arterial pressure / blood pressure ([4]; listed as (+)2-MP): No remarkable effects | anxiolytic activity in combination with a non-effective dose of (-)nicotine (CD1 mice [5]; (+)2-methylpiperidine 0.1 mg/kg, IP, 5 min prior to (-)nicotine (FIG. 1B), n=8): able to enhance the anxiolytic activity of a non-effective dose of (-)nicotine | locomotor activity, first 10 min after introduction to the novel environment (Adult male CD1 mice; 3.0 mg/kg, i.p., 60 min prior): 3402±164 activity counts | locomotor activity, first 10 min after introduction to the novel environment (Adult male CD1 mice; 10 mg/kg, i.p., 60 min prior): 3349±126 activity counts | effect on the habituation process (Adult male CD1 mice; 1.0, 3.0 or 10.0 mg/kg, i.p., drug-by-time interaction p<0.02): dose-related enhancement of the habituation process | effect on locomotor activity (impairment or sedation) (Adult male CD1 mice; 3.0 or 10.0 mg/kg, 60 min prior, first 10 min): did not significantly decrease the high level of locomotor activity | Rectal temperature 15 min. later ([8]; 10 mg/kg, baseline 38.2 ± 0.1): 38.2 ± 0.1 °C | Rectal temperature 15 min. later ([8]; 100 mg/kg, baseline 38.3 ± 0.1): 38.2 ± 0.2 °C | effect on rectal temperature ([8]; 10 or 100 mg/kg, 15 min, as well as 60 and 120 min later): without effect | Deaths in 24 hours (male CD1 mice; 30 mg/kg): 0/5 | Deaths in 24 hours (male CD1 mice; 100 mg/kg): 0/5 | tolerability (male CD1 mice): well tolerated by male CD1 mice, and did not cause any deaths within 24 hours | effect on the lethality elicited by (-)nicotine (mouse; i.p. (-)nicotine, result in words): did not potentiate the lethality; also recorded: does not potentiate (-)nicotine induced acute lethality | DEATHS/24 hours (mouse; pretreatment 0.1 mg/kg, (-)nicotine 3 mg/kg): 0/6 | DEATHS/24 hours (mouse; pretreatment 0.1 mg/kg, (-)nicotine 6 mg/kg): 1/6 | DEATHS/24 hours (mouse; pretreatment 0.1 mg/kg, (-)nicotine 9 mg/kg): 2/6 | DEATHS/24 hours (mouse; [12]): 0/6 | DEATHS/24 hours (mouse; [13]): 1/8 | DEATHS/24 hours (mouse; [14]): 3/6 | Rectal temperature ([7]; (+)2-MP 0.1 mg/kg (so in the source) pretreatment, then (-)nicotine 1.0 mg/kg, * p<0.05): 36.0 ± 0.7 °C | Rectal temperature ([7]; (+)2-MP 1.0 mg/kg pretreatment, then (-)nicotine 0.3 mg/kg): 37.8 ± 0.2 °C | Rectal temperature ([7]; (+)2-MP 10.0 mg/kg pretreatment, then (-)nicotine 0.3 mg/kg): 37.5 ± 0.3 °C | Rectal temperature ([7]; (+)2-MP 10.0 mg/kg pretreatment, then (-)nicotine 1.0 mg/kg, * p<0.05): 36.5 ± 0.5 °C | effect on the hypothermic response to (-)nicotine ([7]; (+)2-methylpiperidine 1 and 10 mg/kg, i.p., 3 min. prior to (-)nicotine): did not potentiate the hypothermic response to (-)nicotine; also recorded: the hypothermic response of the low dose of (-)nicotine (0.3 mg/kg) was actually attenuated; also recorded: the higher dose of (-)nicotine was unaffected | enhancement of the binding of nicotine / nicotinic ligands (rat brain receptor sites; Sloan et al. 1985, listed as (+)isomer of (±)2-methylpiperidine): enhances the binding of nicotinic ligands to rat brain receptor sites
